The target of one data set is T1, COX-2 (Mus musculus, UniProt Q05769).
T1 construct: endogenous in cells; host or cells: thioglycollate-elicited peritoneal macrophages of male C57BL-6J mice, stimulated with LPS
T1 sequence (Q05769 18-604): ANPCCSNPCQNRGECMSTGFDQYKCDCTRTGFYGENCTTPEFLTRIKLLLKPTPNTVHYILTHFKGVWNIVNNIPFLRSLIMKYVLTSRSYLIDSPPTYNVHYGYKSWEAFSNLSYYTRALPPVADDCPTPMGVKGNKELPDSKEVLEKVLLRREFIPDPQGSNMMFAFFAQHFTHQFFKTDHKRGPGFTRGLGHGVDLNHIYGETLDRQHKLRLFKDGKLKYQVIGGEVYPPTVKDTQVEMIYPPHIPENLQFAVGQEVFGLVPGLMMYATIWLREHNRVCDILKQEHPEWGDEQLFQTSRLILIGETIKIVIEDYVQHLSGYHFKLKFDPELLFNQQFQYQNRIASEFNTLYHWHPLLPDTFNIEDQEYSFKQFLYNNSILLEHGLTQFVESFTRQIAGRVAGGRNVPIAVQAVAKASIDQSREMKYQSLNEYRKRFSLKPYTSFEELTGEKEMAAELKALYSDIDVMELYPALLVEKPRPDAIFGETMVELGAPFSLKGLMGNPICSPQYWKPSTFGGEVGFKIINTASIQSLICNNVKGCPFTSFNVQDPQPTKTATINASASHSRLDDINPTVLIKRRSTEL
Put plainly: COX-2 assay: PGE2 release (RIA) from LPS-stimulated mouse peritoneal macrophages. It counts as cell-based, mice. The conditions noted are these: LPS 1 mg/L 9 h, PGE2 by RIA. The method, then:
Cell culture: Adherent macrophages were harvested from the peritoneal cells of male mice (C57BL-6J, Level 2, from Experiment Animal Center, Academy of Military Medical Science) 3 d after the injection (ip) of brewer thioglycollate medium (5 mL/100 g body weight). […] Cell viability was examined by trypan blue dye exclusion. All incubation procedures were performed with 5% CO2 in humidified air at 37° C.
COX-2 assay: Macrophages were incubated with test compound at different concentrations or solvent (Me2SO) for 1 h and were stimulated with LPS 1 mg/L for 9 h. The amount of PGE2 in supernatants was measured by RIA. The inhibitory ratio was calculated using the same Formula as in COX-1 assay section. Cs, Ct, Cc refer to PGE2 concentration in supernatants of LPS, test compound, and control groups, respectively.
Statistical analysis: Data were expressed as the mean±SD of more than three independent experiments. Dose-inhibitory effect curves were fit through “uphill dose response curves, variable slope” using Prism, GraphPad (version 3.00): [formula]

The subject of data set [1] is carrageenan-induced foot pad edema. Kind of data set: Rat carrageenan-induced foot pad edema assay. It counts as in vivo. The conditions noted are these: 10 mg/kg oral. On the procedure: Male Sprgue-Dawley rats (190-220 g ) were fasted with free access to water at least 16 h prior experiments. The rats were dosed orally with a 1 ml suspension of test compound in vehicle (0.5% methyl cellulose and 0.025% Tween-20) or with vehicle alone. One hour later a subplantar injection of 0.1 ml of 1% solution of carageenan in 0.9% strile saline was administered to the right hind foot pad. Paw volume was measured with a displacement plethysmometer 2, 3, and 4 h after carrageenan injection.
(Carrageenan injected into the paw causes an acute inflammation.)

These results are taken from patent US6960611B2, “Sulfonyl-containing 2,3-diarylindole compounds, methods for making same, and methods of use thereof” (Institute of Materia Medica, priority 2002, dated 2005).

Turning to “2-(4-methylsulfonylphenyl)-3-phenyl-5-methylindole [Example 83]”, it took 0.278 nM to reach half-maximal inhibition against COX-2 (IC50). For the same compound, the “inhibitory percentage of edema” value in data set [1] (2 h after carrageenan) was 46.1%; in data set [1] (3 h after carrageenan) it was 47.1%; in data set [1] (4 h after carrageenan), 46.1%.

Take `Cc1ccc(-c2cc(C(F)(F)F)nn2-c2ccc(S(N)(=O)=O)cc2)cc1` [Celecoxib, reference compound]: the edema (paw volume increase) in data set [1] (2 h after carrageenan) came to 31.1 ± 7.87%; in data set [1] (3 h after carrageenan), 53.2 ± 12.6%; in data set [1] (4 h after carrageenan), 48.8 ± 8.11%. Further, the “inhibitory percentage of edema” value in data set [1] (3 h after carrageenan) is reported as 51.6%; in data set [1] (4 h after carrageenan) it was 48.0%.

Take `CS(=O)(=O)c1ccc(-c2[nH]c3ccccc3c2-c2ccccc2)cc1` [Example 59, 2-(4-methylsulfonylphenyl)-3-phenylindole]: the melting point (in general, the temperature, or range, at which the solid turns liquid) is 221 to 222 °C. The IC50 (commonly the concentration that gives 50% inhibition) against COX-2 was determined as 3.86 nM. This compound showed an edema (paw volume increase) in data set [1] (2 h after carrageenan) of 40.8 ± 15.8%. Further, in data set [1] (3 h after carrageenan), the edema (paw volume increase) stood at 48.6 ± 14% and the “inhibitory percentage of edema” value is given as 55.8%. In addition, in data set [1] (4 h after carrageenan), the edema (paw volume increase) came to 41.2 ± 17.4% and the “inhibitory percentage of edema” value came to 56.1%.

Consider `NS(=O)(=O)c1ccc(-c2[nH]c3ccccc3c2-c2ccccc2)cc1` [Example 60, 2-(4-aminosulfonylphenyl)-3-phenylindole], for which the melting point lay in the range of 231 to 232 °C. This compound also gave an IC50 against COX-2 of 0.161 nM. In addition, in data set [1] (2 h after carrageenan), the edema (paw volume increase) was 32.5 ± 9.45%. Besides, in data set [1] (3 h after carrageenan), the edema (paw volume increase) came to 56.9 ± 16.4% and the “inhibitory percentage of edema” value is listed as 48.3%. In data set [1] (4 h after carrageenan), the edema (paw volume increase) was 43.2 ± 13.9% and the “inhibitory percentage of edema” value was 53.9%.

In turn, `Cc1ccc(-c2c(-c3ccc(S(N)(=O)=O)cc3)[nH]c3ccccc23)cc1` [Example 66, 2-(4-aminosulfonylphenyl)-3-(4-methylphenyl)indole] came in with a melting point of 293 to 295 °C. The IC50 at COX-2 was determined as 0.0684 nM.

As to `Cc1ccc(-c2c(-c3ccc(S(N)(=O)=O)cc3)[nH]c3ccccc23)cc1C` [Example 68, 2-(4-aminosulfonylphenyl)-3-(3,4-dimethylphenyl)indole], the melting point was in the range of 251 to 253 °C. The same compound yielded an IC50 against COX-2 of 1.46 nM.

In the case of `COc1ccc(-c2c(-c3ccc(S(N)(=O)=O)cc3)[nH]c3ccccc23)cc1` [Example 70, 2-(4-aminosulfonylphenyl)-3-(4-methoxyphenyl)indole], the edema (paw volume increase) in data set [1] (2 h after carrageenan) came to 21.9 ± 11.8%; in data set [1] (3 h after carrageenan), 34.6 ± 10.4%; in data set [1] (4 h after carrageenan) it was 31.9 ± 11.9%. Further, the “inhibitory percentage of edema” value was determined as 44.7% in data set [1] (3 h after carrageenan) and 38.5% in data set [1] (4 h after carrageenan).

Compound `CS(=O)(=O)c1ccc(-c2[nH]c3ccccc3c2-c2ccc(F)cc2)cc1` [Example 71, 2-(4-methylsulfonylphenyl)-3-(4-fluorophenyl)indole] registered a melting point of 224 to 226 °C. The compound also gave an edema (paw volume increase) in data set [1] (2 h after carrageenan) of 44 ± 21.1%. Besides, in data set [1] (3 h after carrageenan), the edema (paw volume increase) amounted to 54.4 ± 9.8% and the “inhibitory percentage of edema” value turned out to be 11.1%. In addition, in data set [1] (4 h after carrageenan), the edema (paw volume increase) came out at 49.1 ± 19% and the “inhibitory percentage of edema” value worked out at 18.4%.

`CS(=O)(=O)c1ccc(-c2[nH]c3ccc(Cl)cc3c2-c2ccc(Cl)cc2)cc1` [Example 73, 2-(4-methylsulfonylphenyl)-3-(4-chlorophenyl)-5-chloroindole] returned a melting point of 281 to 283 °C. In addition, the IC50 against COX-2 worked out at 85.1 nM.

As to `NS(=O)(=O)c1ccc(-c2[nH]c3ccc(Cl)cc3c2-c2ccc(Cl)cc2)cc1` [Example 74, 2-(4-aminosulfonylphenyl)-3-(4-chlorophenyl)-5-chloroindole], the melting point is 245 to 247 °C. In addition, the midpoint of inhibition on COX-2, the IC50, lay at 0.541 nM.

`CS(=O)(=O)c1ccc(-c2[nH]c3ccc(Cl)cc3c2-c2ccccc2)cc1` [Example 76, 2-(4-methylsulfonylphenyl)-3-phenyl-5-chloroindole]: the melting point fell in the range of 281 to 283 °C. Moreover, in data set [1] (2 h after carrageenan), the edema (paw volume increase) turned out to be 45 ± 17.9% and the “inhibitory percentage of edema” value is recorded as 36.9%. Also, in data set [1] (3 h after carrageenan), the edema (paw volume increase) stood at 46 ± 15.4% and the “inhibitory percentage of edema” value came out at 52.8%. In addition, in data set [1] (4 h after carrageenan), the edema (paw volume increase) worked out at 37.7 ± 15.6% and the “inhibitory percentage of edema” value is given as 53.2%.

In turn, `NS(=O)(=O)c1ccc(-c2[nH]c3ccc(Cl)cc3c2-c2ccccc2Cl)cc1` [Example 77, 2-(4-aminosulfonylphenyl)-3-(2-chlorophenyl) -5-chloro indole] yielded an IC50 against COX-2 of 100 nM.

Take `CS(=O)(=O)c1ccc(-c2[nH]c3ccc(Cl)cc3c2-c2ccccc2Cl)cc1` [Example 78, 2-(4-methylsulfonylphenyl)-3-(2-chlorophenyl) -5-chloro indole]: the melting point lay in the range of 300 to 301.5 °C. At COX-2, this compound displayed an IC50 of 10 nM.

For the compound `NS(=O)(=O)c1ccc(-c2[nH]c3ccc(Br)cc3c2-c2ccccc2)cc1` [Example 81, 2-(4-aminosulfonylphenyl)-3-phenyl-5-bromoindole], the melting point lay in the range of 310 to 312 °C. Further, the IC50 against COX-2 was found to be 5 nM.

In turn, `CS(=O)(=O)c1ccc(-c2[nH]c3ccc(Br)cc3c2-c2ccccc2)cc1` [Example 82, 2-(4-methylsulfonylphenyl)-3-phenyl-5-bromoindole] yielded a melting point of 262 to 264 °C. Further, on COX-2, 1.41 nM corresponded to half-maximal inhibition (IC50).

As to `NS(=O)(=O)c1ccc(-c2[nH]c3ccc(Cl)cc3c2-c2cccc(Cl)c2)cc1` [Example 85, 2-(4-aminosulfonylphenyl)-3-(3-chlorophenyl)-5-chloroindole], the edema (paw volume increase) was determined as 57.2 ± 13.6% in data set [1] (2 h after carrageenan), 62.3 ± 7.2% in data set [1] (3 h after carrageenan) and 61.7 ± 8.8% in data set [1] (4 h after carrageenan). In addition, the “inhibitory percentage of edema” value in data set [1] (2 h after carrageenan) was 19.8%; in data set [1] (3 h after carrageenan) it was 36.1%; in data set [1] (4 h after carrageenan), 23.4%.

In turn, `CS(=O)(=O)c1ccc(-c2[nH]c3ccc(Cl)cc3c2-c2cccc(Cl)c2)cc1` [Example 86, 2-(4-methylsulfonylphenyl)-3-(3-chlorophenyl)-5-chloroindole] had a melting point of 254 to 257 °C. This compound had an IC50 against COX-2 of 0.801 nM.

Take `CS(=O)(=O)c1ccc(-c2[nH]c3ccc(Cl)cc3c2-c2ccc(S(C)(=O)=O)cc2)cc1` [Example 88, 2-(4-methylsulfonylphenyl)-3-(4-methylsulfonylphenyl)-5-chloroindole]: the melting point was 173 to 175 °C. The compound also displayed an IC50 at COX-2 of 1.48 nM.

For `Cc1ccc(-c2[nH]c3ccc(Cl)cc3c2-c2ccc(S(C)(=O)=O)cc2)cc1` [Example 91, 2-(4-methylphenyl)-3-(4-methylsulfonylphenyl)-5-chloroindole], the melting point lay within 238 to 240 °C. The same compound had an IC50 against COX-2 of 1.68 nM.

For the compound `CS(=O)(=O)c1ccc(-c2c(-c3ccc(O)cc3)[nH]c3ccc(Cl)cc23)cc1` [Example 95, 2-(4-hydroxyphenyl)-3-(4-methylsulfonylphenyl)-5-chloroindole], the melting point is 271 to 273 °C.

`NS(=O)(=O)c1ccc(-c2[nH]c3ccccc3c2-c2ccc(O)cc2)cc1` [Example 96, 2-(4-aminosulfonylphenyl)-3-(4-hydroxyphenyl)indole] displayed a melting point of 241 to 243 °C. Further, on COX-2, the IC50 was determined as 6.44 nM.

As to `CC(=O)NS(=O)(=O)c1ccc(-c2[nH]c3ccccc3c2-c2ccccc2)cc1` [Example 97, 2-(N-acetamide-sulfonylphenyl)-3-phenylindole], the melting point was in the range of 221 to 222 °C. The compound further returned an IC50 against COX-2 of 0.184 nM.

Consider `CS(=O)(=O)c1ccc(C2=C(c3ccccc3)C(=O)OC2)cc1` [Rofecoxib, reference compound], for which the edema (paw volume increase) in data set [1] (2 h after carrageenan) was determined as 50.3 ± 5.1%; in data set [1] (3 h after carrageenan) it was 47.2 ± 2.4%; in data set [1] (4 h after carrageenan) it was 38.2 ± 6.7%. The results for the “inhibitory percentage of edema” value in data set [1] (2 h after carrageenan), in data set [1] (3 h after carrageenan) and in data set [1] (4 h after carrageenan) were 29.5%, 51.6% and 52.6%, respectively.
